Results published in PMC5949348, “The Metabolism of Separase Inhibitor Sepin-1 in Human, Mouse, and Rat Liver Microsomes” (Frontiers in Pharmacology, 2018).

How the values were obtained:
[1] = Metabolism of sepin-1 in HLM, MLM and RLM (metabolite profiling, UHPLC-QTOFMS); type: in vitro ADME, human, mouse, rat; conditions: 30 min; for Source (liver microsomes in which the metabolite was found): 30 μM sepin-1, 1.0 mg microsomes, NADPH 1.0 mM, 37°C; for Relative abundance of metabolite across HLM, MLM and RLM (in words): 30 μM sepin-1, NADPH 1.0 mM
Procedure: (§1) Incubations were conducted in 1× phosphate-buffered saline (1× PBS, pH 7.4), containing 30 μM sepin-1, 1.0 mg HLM, MLM, RLM, or 2 pmol of each cDNA-expressed P450 enzyme (control, CYP1A2, 2A6, 2B6, 2C8, 2C9, 2C19, 2D6, 2E1, and CYP3A4) in a final volume of 190 μl. After 5 min of pre-incubation at 37°C, the reaction was initiated by adding 10 μl of 20 mM NADPH (final concentration 1.0 mM) and continued for 30 min, with shaking at 37°C. Incubations lacking NADPH served as controls. Reactions were terminated with 200 μl of ice-cold methanol, followed by vortexing for 30 s and centrifuging at 15,000 × g for 15 min. Each supernatant was transferred to an auto sampler vial, and 5.0 μl was injected on to UHPLC coupled with a QTOFMS system for metabolite analysis. Incubations were conducted in quadruplicate for HLM, in triplicate for MLM and RLM, and in duplicate for cDNA-expressed P450 enzymes.
(§2) The separation of sepin-1 and its metabolites was achieved using a 1260 Infinity Binary LC System (Agilent Technologies, Santa Clara, CA, United States) equipped with 100 mm × 2.1 mm (Agilent XDB C18) column. The column temperature was maintained at 40°C. The flow rate was 0.3 ml/min, with a gradient ranging from 2% to 98% aqueous acetonitrile containing 0.1% formic acid in a 15-min run. QTOFMS was operated in a positive mode with electrospray ionization. Ultra-high pure nitrogen was applied as the drying gas (12 l/min) and the collision gas. The drying gas temperature was set at 325°C, and the nebulizer pressure was kept at 35 psi. The capillary voltages were set at 3.5 kV. During MS, real-time mass correction and accurate mass were achieved by continuously measuring standard reference ions at m/z 121.0508 and 922.0098 in the positive mode. The MS/MS of sepin-1 metabolites was performed in a targeted mode with a default isolation width of m/z 4 and collision energy ramp ranging from 10 to 45 V.
Mass chromatograms and mass spectra were acquired by MassHunter Workstation Data Acquisition Software (Agilent, Santa Clara, CA, United States) in centroid and profile formats from m/z 100 to 1000. The acquisition rate was set as 1.5 spectra per second. Centroid and integrated mass chromatographic data were processed by Mass Profinder and Mass Profiler Professional Software (Agilent, Santa Clara, CA, United States) to generate a multivariate data matrix. The corresponding data matrices were then exported into SIMCA13 (Umetrics, Kinnelon, NJ, United States) for multivariate data analysis. OPLS-DA was conducted on Pareto-scaled data. For the QQQMS data, QQQ Quantitative Analysis Software (Agilent, Santa Clara, CA, United States) was used for metabolite analysis. […] Statistical differences between two groups were determined by Student’s t-test.

[2] = Metabolism of sepin-1 in human liver microsomes; type: in vitro ADME; conditions: HLM, 30 μM sepin-1, with or without NADPH 1.0 mM
Procedure: as §1
as §2, with “During MS, real-time mass correction and accurate mass were achieved by continuously measuring standard reference ions at m/z 121.0508 and 922.0098 in the positive mode. The MS/MS of sepin-1 metabolites was performed in a targeted mode with a default isolation width of m/z 4 and collision energy ramp ranging from 10 to 45 V.” left out
Mass chromatograms and mass spectra were acquired by MassHunter Workstation Data Acquisition Software (Agilent, Santa Clara, CA, United States) in centroid and profile formats from m/z 100 to 1000. […] For the QQQMS data, QQQ Quantitative Analysis Software (Agilent, Santa Clara, CA, United States) was used for metabolite analysis. […] Statistical differences between two groups were determined by Student’s t-test.

[3] = Sepin-1 metabolism with cDNA-expressed P450 control; type: in vitro ADME, human; conditions: 30 μM sepin-1, control enzyme preparation, NADPH 1.0 mM, 30 min; unit not given, highest enzyme per metabolite = 100.0
Procedure: as §1
(§3) The separation of sepin-1 and its metabolites was achieved using a 1260 Infinity Binary LC System (Agilent Technologies, Santa Clara, CA, United States) equipped with 100 mm × 2.1 mm (Agilent XDB C18) column. The column temperature was maintained at 40°C. The flow rate was 0.3 ml/min, with a gradient ranging from 2% to 98% aqueous acetonitrile containing 0.1% formic acid in a 15-min run. QTOFMS was operated in a positive mode with electrospray ionization. […]

CYP1A2 = molecular target: T1, CYP1A2 (Homo sapiens, UniProt P05177); assay: Sepin-1 metabolism by recombinant CYP1A2; type: in vitro ADME; conditions: 30 μM sepin-1, 2 pmol cDNA-expressed enzyme, NADPH 1.0 mM, 30 min; unit not given, highest enzyme per metabolite = 100.0
T1 construct: purchased XenoTech
T1 sequence (P05177 1-516): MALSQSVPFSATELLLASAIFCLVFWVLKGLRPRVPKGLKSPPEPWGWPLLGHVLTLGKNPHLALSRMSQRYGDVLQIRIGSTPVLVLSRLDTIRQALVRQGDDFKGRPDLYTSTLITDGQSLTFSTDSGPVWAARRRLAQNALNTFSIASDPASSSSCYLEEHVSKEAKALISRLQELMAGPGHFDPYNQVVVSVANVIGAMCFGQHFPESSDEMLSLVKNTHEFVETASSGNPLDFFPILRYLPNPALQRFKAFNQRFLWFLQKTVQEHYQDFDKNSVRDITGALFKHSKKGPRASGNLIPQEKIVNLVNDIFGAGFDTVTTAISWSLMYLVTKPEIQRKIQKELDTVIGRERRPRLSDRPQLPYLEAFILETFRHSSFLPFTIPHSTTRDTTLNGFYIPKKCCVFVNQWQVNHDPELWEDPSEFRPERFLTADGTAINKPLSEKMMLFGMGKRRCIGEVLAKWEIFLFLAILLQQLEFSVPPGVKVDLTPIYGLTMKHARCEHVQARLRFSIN
Procedure: as §1, §3

CYP2A6 = test system: T2, CYP2A6; assay: Sepin-1 metabolism by recombinant CYP2A6; type: in vitro ADME, human; conditions: 30 μM sepin-1, 2 pmol cDNA-expressed enzyme, NADPH 1.0 mM, 30 min; unit not given, highest enzyme per metabolite = 100.0
T2 construct: purchased XenoTech
Procedure: as §1, §3

CYP2B6 = molecular target: T3, CYP2B6 (Homo sapiens, UniProt P20813); assay: Sepin-1 metabolism by recombinant CYP2B6; type: in vitro ADME; conditions: 30 μM sepin-1, 2 pmol cDNA-expressed enzyme, NADPH 1.0 mM, 30 min; unit not given, highest enzyme per metabolite = 100.0
T3 construct: purchased XenoTech
T3 sequence (P20813 1-491): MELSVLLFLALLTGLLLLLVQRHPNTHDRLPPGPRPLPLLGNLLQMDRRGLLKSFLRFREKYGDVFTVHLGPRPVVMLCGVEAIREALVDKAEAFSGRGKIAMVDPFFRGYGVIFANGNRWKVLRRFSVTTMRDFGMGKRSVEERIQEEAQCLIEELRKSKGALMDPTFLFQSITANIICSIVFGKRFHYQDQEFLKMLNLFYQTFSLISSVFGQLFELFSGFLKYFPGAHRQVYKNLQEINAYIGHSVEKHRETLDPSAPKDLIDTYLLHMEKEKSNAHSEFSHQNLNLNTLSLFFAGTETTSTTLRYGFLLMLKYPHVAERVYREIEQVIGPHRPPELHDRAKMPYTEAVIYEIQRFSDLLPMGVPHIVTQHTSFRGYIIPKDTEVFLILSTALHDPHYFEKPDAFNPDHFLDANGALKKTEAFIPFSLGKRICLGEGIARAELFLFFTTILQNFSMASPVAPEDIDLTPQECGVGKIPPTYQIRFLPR
Procedure: as §1, §3

CYP2C8 = molecular target: T4, CYP2C8 (Homo sapiens, UniProt P10632); assay: Sepin-1 metabolism by recombinant CYP2C8; type: in vitro ADME; conditions: 30 μM sepin-1, 2 pmol cDNA-expressed enzyme, NADPH 1.0 mM, 30 min; unit not given, highest enzyme per metabolite = 100.0
T4 construct: purchased XenoTech
T4 sequence (P10632 1-490): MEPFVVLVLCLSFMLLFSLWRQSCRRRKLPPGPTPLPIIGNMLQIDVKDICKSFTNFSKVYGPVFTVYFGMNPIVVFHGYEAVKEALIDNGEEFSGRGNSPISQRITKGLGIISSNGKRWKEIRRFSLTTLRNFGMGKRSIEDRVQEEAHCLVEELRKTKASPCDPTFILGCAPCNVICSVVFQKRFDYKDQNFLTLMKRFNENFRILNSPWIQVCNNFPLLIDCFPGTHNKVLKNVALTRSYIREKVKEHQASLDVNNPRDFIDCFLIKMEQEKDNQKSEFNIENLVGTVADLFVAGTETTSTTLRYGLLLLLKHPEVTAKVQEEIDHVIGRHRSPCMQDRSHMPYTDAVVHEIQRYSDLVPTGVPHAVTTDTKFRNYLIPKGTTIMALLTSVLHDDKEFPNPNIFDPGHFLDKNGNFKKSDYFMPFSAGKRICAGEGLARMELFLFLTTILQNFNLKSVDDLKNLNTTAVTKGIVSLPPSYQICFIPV
Procedure: as §1, §3

CYP2C9 = molecular target: T5, CYP2C9 (Homo sapiens, UniProt P11712); assay: Sepin-1 metabolism by recombinant CYP2C9; type: in vitro ADME; conditions: 30 μM sepin-1, 2 pmol cDNA-expressed enzyme, NADPH 1.0 mM, 30 min; unit not given, highest enzyme per metabolite = 100.0
T5 construct: purchased XenoTech
Procedure: as §1, §3

CYP2C19 = molecular target: T6, CYP2C19 (Homo sapiens, UniProt P33261); assay: Sepin-1 metabolism by recombinant CYP2C19; type: in vitro ADME; conditions: 30 μM sepin-1, 2 pmol cDNA-expressed enzyme, NADPH 1.0 mM, 30 min; unit not given, highest enzyme per metabolite = 100.0
T6 construct: purchased XenoTech
Procedure: as §1, §3

CYP2D6 = molecular target: T7, CYP2D6 (Homo sapiens, UniProt P10635); assay: Sepin-1 metabolism by recombinant CYP2D6; type: in vitro ADME; conditions: 30 μM sepin-1, 2 pmol cDNA-expressed enzyme, NADPH 1.0 mM, 30 min; unit not given, highest enzyme per metabolite = 100.0
T7 construct: purchased XenoTech
Procedure: as §1, §3

CYP2E1 = test system: T8, CYP2E1; assay: Sepin-1 metabolism by recombinant CYP2E1; type: in vitro ADME, human; conditions: 30 μM sepin-1, 2 pmol cDNA-expressed enzyme, NADPH 1.0 mM, 30 min; unit not given, highest enzyme per metabolite = 100.0
T8 construct: purchased XenoTech
Procedure: as §1, §3

CYP3A4 = molecular target: T9, CYP3A4 (Homo sapiens, UniProt P08684); assay: Sepin-1 metabolism by recombinant CYP3A4; type: in vitro ADME; conditions: 30 μM sepin-1, 2 pmol cDNA-expressed enzyme, NADPH 1.0 mM, 30 min; unit not given, highest enzyme per metabolite = 100.0
T9 construct: purchased XenoTech
Procedure: as §1, §3

T5 sequence (P11712 whole entry): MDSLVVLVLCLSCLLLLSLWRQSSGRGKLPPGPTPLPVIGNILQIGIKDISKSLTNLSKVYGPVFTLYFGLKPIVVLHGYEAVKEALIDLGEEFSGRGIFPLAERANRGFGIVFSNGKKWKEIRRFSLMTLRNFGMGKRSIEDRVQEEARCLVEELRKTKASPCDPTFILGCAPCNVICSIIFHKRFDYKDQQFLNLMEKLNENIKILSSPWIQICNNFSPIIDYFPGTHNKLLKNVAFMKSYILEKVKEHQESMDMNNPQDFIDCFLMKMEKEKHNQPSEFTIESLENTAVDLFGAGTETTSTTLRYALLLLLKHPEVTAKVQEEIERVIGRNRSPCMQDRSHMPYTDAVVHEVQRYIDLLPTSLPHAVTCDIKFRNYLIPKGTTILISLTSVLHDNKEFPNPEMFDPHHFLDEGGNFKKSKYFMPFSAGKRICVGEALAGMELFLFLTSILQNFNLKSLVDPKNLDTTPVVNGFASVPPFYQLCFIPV
T9 sequence (P08684 whole entry): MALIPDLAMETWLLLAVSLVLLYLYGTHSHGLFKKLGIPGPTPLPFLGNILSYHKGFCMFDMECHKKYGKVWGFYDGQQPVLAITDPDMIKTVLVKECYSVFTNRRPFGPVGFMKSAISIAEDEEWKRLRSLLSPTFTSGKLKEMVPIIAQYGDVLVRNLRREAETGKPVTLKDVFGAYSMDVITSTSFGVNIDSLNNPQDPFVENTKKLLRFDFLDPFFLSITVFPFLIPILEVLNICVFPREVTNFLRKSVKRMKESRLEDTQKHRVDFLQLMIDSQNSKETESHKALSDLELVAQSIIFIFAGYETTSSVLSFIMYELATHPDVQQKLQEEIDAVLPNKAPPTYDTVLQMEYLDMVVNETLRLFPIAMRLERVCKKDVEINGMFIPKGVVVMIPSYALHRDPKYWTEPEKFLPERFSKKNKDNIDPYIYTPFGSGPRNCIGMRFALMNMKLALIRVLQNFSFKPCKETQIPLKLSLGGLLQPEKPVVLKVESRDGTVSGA
T7 sequence (P10635 whole entry): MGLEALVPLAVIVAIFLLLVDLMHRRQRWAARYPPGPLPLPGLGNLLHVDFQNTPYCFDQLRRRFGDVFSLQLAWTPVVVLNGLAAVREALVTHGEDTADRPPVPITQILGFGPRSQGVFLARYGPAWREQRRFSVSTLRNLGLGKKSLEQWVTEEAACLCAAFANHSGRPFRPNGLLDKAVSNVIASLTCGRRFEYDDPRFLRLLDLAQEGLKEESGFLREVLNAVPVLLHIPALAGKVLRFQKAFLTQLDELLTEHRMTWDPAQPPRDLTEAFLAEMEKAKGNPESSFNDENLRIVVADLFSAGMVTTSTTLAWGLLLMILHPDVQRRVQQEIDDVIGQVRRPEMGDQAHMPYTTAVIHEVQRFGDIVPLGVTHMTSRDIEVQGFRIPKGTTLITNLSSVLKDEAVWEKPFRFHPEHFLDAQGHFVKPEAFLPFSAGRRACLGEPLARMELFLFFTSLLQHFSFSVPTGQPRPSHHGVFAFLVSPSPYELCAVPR
T6 sequence (P33261 whole entry): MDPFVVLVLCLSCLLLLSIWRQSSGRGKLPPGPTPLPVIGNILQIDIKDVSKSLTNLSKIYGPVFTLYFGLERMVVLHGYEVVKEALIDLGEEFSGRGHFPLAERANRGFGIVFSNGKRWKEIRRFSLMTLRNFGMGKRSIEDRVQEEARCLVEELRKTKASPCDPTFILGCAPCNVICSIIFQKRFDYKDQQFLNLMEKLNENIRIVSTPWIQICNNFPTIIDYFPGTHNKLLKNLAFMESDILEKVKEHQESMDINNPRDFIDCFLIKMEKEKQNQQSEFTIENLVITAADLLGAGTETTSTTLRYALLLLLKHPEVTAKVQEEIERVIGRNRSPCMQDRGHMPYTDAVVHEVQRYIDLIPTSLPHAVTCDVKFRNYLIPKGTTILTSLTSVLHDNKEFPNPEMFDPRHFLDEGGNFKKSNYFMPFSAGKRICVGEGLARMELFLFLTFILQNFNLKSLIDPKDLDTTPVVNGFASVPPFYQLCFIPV

| NADPH dependence of metabolite formation [2] | Formation of metabolite, Control (Role of P450s in the metabolism of sepin-1) [3] | Formation of metabolite by CYP1A2 (Role of P450s in the metabolism of sepin-1) (CYP1A2) | Formation of metabolite by CYP2A6 (Role of P450s in the metabolism of sepin-1) (CYP2A6) | Formation of metabolite by CYP2B6 (Role of P450s in the metabolism of sepin-1) (CYP2B6) | Formation of metabolite by CYP2C8 (Role of P450s in the metabolism of sepin-1) (CYP2C8) | Formation of metabolite by CYP2C9 (Role of P450s in the metabolism of sepin-1) (CYP2C9) | Formation of metabolite by CYP2C19 (Role of P450s in the metabolism of sepin-1) (CYP2C19) | Formation of metabolite by CYP2D6 (Role of P450s in the metabolism of sepin-1) (CYP2D6) | Formation of metabolite by CYP2E1 (Role of P450s in the metabolism of sepin-1) (CYP2E1) | Formation of metabolite by CYP3A4 (Role of P450s in the metabolism of sepin-1) (CYP3A4) | SMILES | Source (liver microsomes in which the metabolite was found) [1] | Relative abundance of metabolite across HLM, MLM and RLM (in words) [1] |
| --- | --- | --- | --- | --- | --- | --- | --- | --- | --- | --- | --- | --- | --- |
| NADPH dependent | 79.5 | 86.3 | 90.8 | 91.9 | 91.3 | 90.4 | 90.8 | 96.9 | 89.9 | 100.0 | CC1(C)Nc2ccc([N+](=O)[O-])cc2N1 [M1] | HLM, MLM, RLM | dominant metabolites in all the three species |
| NADPH dependent | 41.5 | 50.5 | 76.1 | 85.9 | 63.6 | 57.2 | 67.5 | 100.0 | 53.2 | 95.3 | CC1(C)[N+]([O-])=c2ccc(N)cc2=[N+]1[O-] [M2] | HLM, MLM, RLM | dominant metabolites in all the three species |
